Experimental data: the NIST ThermoML archive (doi:10.1021/je034087q)

Assay: xn = mol fraction of the nth substance listed

CCCCC [pentane] + O=C=O
Settings	mass density [kg/m3]
312.35 K, 7770 kPa, Fluid (supercritical or subcritical phases), x2 = 0.96	475
312.35 K, 7780 kPa, Fluid (supercritical or subcritical phases), x2 = 0.96	479
312.35 K, 7790 kPa, Fluid (supercritical or subcritical phases), x2 = 0.96	482
312.35 K, 7800 kPa, Fluid (supercritical or subcritical phases), x2 = 0.96	488
312.35 K, 7810 kPa, Fluid (supercritical or subcritical phases), x2 = 0.96	491
312.35 K, 7840 kPa, Fluid (supercritical or subcritical phases), x2 = 0.96	501
312.35 K, 7870 kPa, Fluid (supercritical or subcritical phases), x2 = 0.96	511
312.35 K, 7890 kPa, Fluid (supercritical or subcritical phases), x2 = 0.96	522
312.35 K, 7920 kPa, Fluid (supercritical or subcritical phases), x2 = 0.96	532
312.35 K, 7970 kPa, Fluid (supercritical or subcritical phases), x2 = 0.96	544
312.35 K, 8010 kPa, Fluid (supercritical or subcritical phases), x2 = 0.96	556
312.35 K, 8070 kPa, Fluid (supercritical or subcritical phases), x2 = 0.96	568
312.35 K, 8150 kPa, Fluid (supercritical or subcritical phases), x2 = 0.96	581
312.35 K, 8230 kPa, Fluid (supercritical or subcritical phases), x2 = 0.96	594
312.35 K, 8360 kPa, Fluid (supercritical or subcritical phases), x2 = 0.96	608
312.35 K, 8530 kPa, Fluid (supercritical or subcritical phases), x2 = 0.96	624
312.35 K, 8740 kPa, Fluid (supercritical or subcritical phases), x2 = 0.96	639
312.35 K, 9020 kPa, Fluid (supercritical or subcritical phases), x2 = 0.96	656
312.35 K, 9400 kPa, Fluid (supercritical or subcritical phases), x2 = 0.96	674
312.35 K, 9600 kPa, Fluid (supercritical or subcritical phases), x2 = 0.96	686
315.55 K, 7940 kPa, Fluid (supercritical or subcritical phases), x2 = 0.947	466
315.55 K, 7960 kPa, Fluid (supercritical or subcritical phases), x2 = 0.947	472
315.55 K, 7970 kPa, Fluid (supercritical or subcritical phases), x2 = 0.947	475
315.55 K, 8010 kPa, Fluid (supercritical or subcritical phases), x2 = 0.947	484
315.55 K, 8040 kPa, Fluid (supercritical or subcritical phases), x2 = 0.947	492
315.55 K, 8070 kPa, Fluid (supercritical or subcritical phases), x2 = 0.947	502
315.55 K, 8110 kPa, Fluid (supercritical or subcritical phases), x2 = 0.947	512
315.55 K, 8150 kPa, Fluid (supercritical or subcritical phases), x2 = 0.947	522
315.55 K, 8200 kPa, Fluid (supercritical or subcritical phases), x2 = 0.947	532
315.55 K, 8250 kPa, Fluid (supercritical or subcritical phases), x2 = 0.947	543
315.55 K, 8320 kPa, Fluid (supercritical or subcritical phases), x2 = 0.947	555
315.55 K, 8390 kPa, Fluid (supercritical or subcritical phases), x2 = 0.947	566
315.55 K, 8490 kPa, Fluid (supercritical or subcritical phases), x2 = 0.947	578
315.55 K, 8610 kPa, Fluid (supercritical or subcritical phases), x2 = 0.947	592
315.55 K, 8760 kPa, Fluid (supercritical or subcritical phases), x2 = 0.947	605
315.55 K, 8970 kPa, Fluid (supercritical or subcritical phases), x2 = 0.947	620
315.55 K, 9200 kPa, Fluid (supercritical or subcritical phases), x2 = 0.947	635
315.55 K, 9520 kPa, Fluid (supercritical or subcritical phases), x2 = 0.947	650
315.55 K, 9940 kPa, Fluid (supercritical or subcritical phases), x2 = 0.947	666
315.55 K, 10200 kPa, Fluid (supercritical or subcritical phases), x2 = 0.947	676
315.55 K, 10490 kPa, Fluid (supercritical or subcritical phases), x2 = 0.947	684
315.55 K, 10840 kPa, Fluid (supercritical or subcritical phases), x2 = 0.947	695
315.55 K, 11480 kPa, Fluid (supercritical or subcritical phases), x2 = 0.947	711
318.15 K, 7980 kPa, Fluid (supercritical or subcritical phases), x2 = 0.901	590
318.15 K, 8070 kPa, Fluid (supercritical or subcritical phases), x2 = 0.901	594
318.15 K, 8170 kPa, Fluid (supercritical or subcritical phases), x2 = 0.901	600
318.15 K, 8280 kPa, Fluid (supercritical or subcritical phases), x2 = 0.901	606
318.15 K, 8380 kPa, Fluid (supercritical or subcritical phases), x2 = 0.901	613
318.15 K, 8520 kPa, Fluid (supercritical or subcritical phases), x2 = 0.901	619
318.15 K, 8660 kPa, Fluid (supercritical or subcritical phases), x2 = 0.901	625
318.15 K, 8810 kPa, Fluid (supercritical or subcritical phases), x2 = 0.901	631
318.15 K, 8980 kPa, Fluid (supercritical or subcritical phases), x2 = 0.901	638
318.15 K, 9180 kPa, Fluid (supercritical or subcritical phases), x2 = 0.901	644
318.15 K, 9400 kPa, Fluid (supercritical or subcritical phases), x2 = 0.901	651
318.15 K, 9440 kPa, Fluid (supercritical or subcritical phases), x2 = 0.901	654
318.15 K, 9550 kPa, Fluid (supercritical or subcritical phases), x2 = 0.901	656
318.15 K, 9720 kPa, Fluid (supercritical or subcritical phases), x2 = 0.901	661
318.15 K, 9910 kPa, Fluid (supercritical or subcritical phases), x2 = 0.901	666
318.15 K, 10010 kPa, Fluid (supercritical or subcritical phases), x2 = 0.901	669
318.15 K, 10130 kPa, Fluid (supercritical or subcritical phases), x2 = 0.901	670
318.15 K, 10260 kPa, Fluid (supercritical or subcritical phases), x2 = 0.901	674
318.15 K, 10370 kPa, Fluid (supercritical or subcritical phases), x2 = 0.901	677
318.15 K, 10560 kPa, Fluid (supercritical or subcritical phases), x2 = 0.901	680
318.15 K, 10680 kPa, Fluid (supercritical or subcritical phases), x2 = 0.901	683
318.15 K, 10880 kPa, Fluid (supercritical or subcritical phases), x2 = 0.901	685
318.15 K, 11070 kPa, Fluid (supercritical or subcritical phases), x2 = 0.901	689
318.15 K, 11290 kPa, Fluid (supercritical or subcritical phases), x2 = 0.901	694
318.15 K, 11490 kPa, Fluid (supercritical or subcritical phases), x2 = 0.901	697
318.15 K, 11650 kPa, Fluid (supercritical or subcritical phases), x2 = 0.901	698
318.15 K, 11890 kPa, Fluid (supercritical or subcritical phases), x2 = 0.901	702
318.15 K, 12110 kPa, Fluid (supercritical or subcritical phases), x2 = 0.901	705
318.15 K, 12380 kPa, Fluid (supercritical or subcritical phases), x2 = 0.901	710
318.15 K, 12600 kPa, Fluid (supercritical or subcritical phases), x2 = 0.901	713
318.15 K, 12940 kPa, Fluid (supercritical or subcritical phases), x2 = 0.901	716
318.15 K, 13280 kPa, Fluid (supercritical or subcritical phases), x2 = 0.901	722
318.15 K, 13690 kPa, Fluid (supercritical or subcritical phases), x2 = 0.901	727
318.15 K, 13870 kPa, Fluid (supercritical or subcritical phases), x2 = 0.901	728
318.15 K, 14050 kPa, Fluid (supercritical or subcritical phases), x2 = 0.901	732
318.15 K, 14410 kPa, Fluid (supercritical or subcritical phases), x2 = 0.901	734
318.15 K, 14620 kPa, Fluid (supercritical or subcritical phases), x2 = 0.901	736
318.15 K, 14900 kPa, Fluid (supercritical or subcritical phases), x2 = 0.901	738
318.15 K, Liquid, Other PVT measurement, x2 = 0.901	585
323.15 K, 2500 kPa, Fluid (supercritical or subcritical phases), x2 = 0.214	607
